Consider 26 compounds from US9527832B2, “Substituted condensed pyrimidine compounds” (GRÜNENTHAL GMBH, priority 2013, dated 2016).

Each structure is given as a SMILES string.

The experiment deals with T1, human PDE4B1 (Homo sapiens, UniProt Q07343).
T1 construct: host or cells: Sf9 cells
Briefly: cAMP HTRF assay to determine the activity of hPDE4B1. It is filed as biochemical. Particulars: for inhibition at 1 µM: Percentage inhibition of PDE4B at 1 μM test concentration; for IC50: dose response measurements with eight concentrations, reported as ranges, read-out: IC50; for inhibition at 0.1 µM: Percentage inhibition of PDE4B at 0.1 μM test concentration, read-out: Inhibition [%] (inh. at 0.1 μM). The procedure, abridged:
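Sf9-expressed recombinant human PDE4B1 (4.8 U) in Tris-HCl/MgCl2/DTT/Tween 20 buffer pH 7.8, with cAMP at 40 nM final, 30 min at room temperature. Reaction stopped with IBMX 1 mM; remaining cAMP detected by HTRF (665/620 nm ratio). IC50 from eight-point dose-response, n=2.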

The term inhibition denotes the relative decrease from the control value, in per cent. Usually IC50 stands for the concentration that gives 50% inhibition.

T1 sequence (Q07343 whole entry): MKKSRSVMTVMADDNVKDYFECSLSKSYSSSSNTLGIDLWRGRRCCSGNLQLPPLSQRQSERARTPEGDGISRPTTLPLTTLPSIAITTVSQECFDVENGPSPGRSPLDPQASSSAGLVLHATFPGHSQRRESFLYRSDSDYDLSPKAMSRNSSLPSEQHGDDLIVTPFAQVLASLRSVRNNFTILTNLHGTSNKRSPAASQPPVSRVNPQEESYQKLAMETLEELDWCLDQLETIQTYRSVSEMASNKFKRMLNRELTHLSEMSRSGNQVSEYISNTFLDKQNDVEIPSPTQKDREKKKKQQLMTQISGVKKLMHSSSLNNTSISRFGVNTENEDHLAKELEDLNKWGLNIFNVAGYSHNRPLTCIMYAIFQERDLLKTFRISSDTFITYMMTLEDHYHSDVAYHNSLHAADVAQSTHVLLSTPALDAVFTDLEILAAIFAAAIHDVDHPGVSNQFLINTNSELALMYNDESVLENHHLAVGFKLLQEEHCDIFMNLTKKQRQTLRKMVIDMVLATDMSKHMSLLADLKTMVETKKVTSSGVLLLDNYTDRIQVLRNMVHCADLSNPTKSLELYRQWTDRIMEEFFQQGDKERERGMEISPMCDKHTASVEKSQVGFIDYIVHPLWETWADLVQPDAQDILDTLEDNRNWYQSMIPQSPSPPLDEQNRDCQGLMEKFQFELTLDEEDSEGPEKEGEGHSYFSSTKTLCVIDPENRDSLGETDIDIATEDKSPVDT

Take `O=C(COc1ccc2c(c1)N(c1nc(-c3ccc(Cl)s3)nc3c1CS(=O)(=O)C3)CC2)NC1COC1` [Compound No. 2-60, 2-((1-(2-(5-Chlorothiophen-2-yl)-6,6-dioxido-5,7-dihydrothieno[3,4-d]pyrimidin-4-yl)indolin-6-yl)oxy)-N-(oxetan-3-yl)acetamide]: the inhibition at 1 µM amounted to 75% and the half-inhibitory concentration (IC50) lay in the range of 100 to 1000 nM.

For the compound `O=C(COc1ccc2c(c1)N(c1nc(-c3ccc(Cl)s3)nc3c1CS(=O)(=O)C3)CC2)NC1CC1` [Compound No. 2-61, 2-((1-(2-(5-Chlorothiophen-2-yl)-6,6-dioxido-5,7-dihydrothieno[3,4-d]pyrimidin-4-yl)indolin-6-yl)oxy)-N-cyclopropylacetamide], the inhibition at 1 µM was found to be 60% and the IC50 is under 100 nM.

Turning to `CN(C(=O)COc1ccc2c(c1)N(c1nc(-c3ccc(Cl)s3)nc3c1CCC3)CC2)C1CC1` [Compound No. 2-64, 2-((1-(2-(5-Chlorothiophen-2-yl)-6,7-dihydro-5H-cyclopenta[d]pyrimidin-4-yl)indolin-6-yl)oxy)-N-cyclopropyl-N-methylacetamide], the inhibition at 1 µM came to 65% and the concentration for half-maximal inhibition (IC50) was 100 to 1000 nM.

Turning to `O=C(COc1ccc2c(c1)N(c1nc(-c3ccc(Cl)s3)nc3c1CCC3)CC2)NC1COC1` [Compound No. 2-65, 2-((1-(2-(5-Chlorothiophen-2-yl)-6,7-dihydro-5H-cyclopenta[d]pyrimidin-4-yl)indolin-6-yl)oxy)-N-(oxetan-3-yl)acetamide], the inhibition at 1 µM worked out at 5%.

Consider `CC(C)NC(=O)COc1ccc2c(c1)N(c1nc(-c3ccc(Cl)s3)nc3c1CCC3)CC2` [Compound No. 2-66, 2-((1-(2-(5-Chlorothiophen-2-yl)-6,7-dihydro-5H-cyclopenta[d]pyrimidin-4-yl)indolin-6-yl)oxy)-N-isopropylacetamide], for which the inhibition at 1 µM amounted to 32%.

Consider `CN(CC1CC1)C(=O)COc1ccc2c(c1)N(c1nc(-c3ccc(Cl)s3)nc3c1CCC3)CC2` [Compound No. 2-67, 2-((1-(2-(5-Chlorothiophen-2-yl)-6,7-dihydro-5H-cyclopenta[d]pyrimidin-4-yl)indolin-6-yl)oxy)-N-(cyclopropylmethyl)-N-methylacetamide], for which the inhibition at 1 µM was 6%.

As to `CCNC(=O)COc1ccc2c(c1)N(c1nc(-c3ccc(Cl)s3)nc3c1CCC3)CC2` [Compound No. 2-68, 2-((1-(2-(5-Chlorothiophen-2-yl)-6,7-dihydro-5H-cyclopenta[d]pyrimidin-4-yl)indolin-6-yl)oxy)-N-ethylacetamide], the inhibition at 1 µM worked out at 2%.

Take `O=C(COc1ccc2c(c1)N(c1nc(-c3ccc(Cl)s3)nc3c1CCC3)CC2)NCCO` [Compound No. 2-69, 2-((1-(2-(5-Chlorothiophen-2-yl)-6,7-dihydro-5H-cyclopenta[d]pyrimidin-4-yl)indolin-6-yl)oxy)-N-(2-hydroxyethyl)acetamide]: the inhibition at 1 µM is 4%.

Turning to `CNC(=O)COc1ccc2c(c1)N(c1nc(-c3ccc(Cl)s3)nc3c1CCC3)CC2` [Compound No. 2-70, 2-((1-(2-(5-Chlorothiophen-2-yl)-6,7-dihydro-5H-cyclopenta[d]pyrimidin-4-yl)indolin-6-yl)oxy)-N-methylacetamide], the inhibition at 1 µM was 23%.

Regarding `NC(=O)COc1ccc2c(c1)N(c1nc(-c3ccc(Cl)s3)nc3c1CCC3)CC2` [Compound No. 2-71, 2-((1-(2-(5-Chlorothiophen-2-yl)-6,7-dihydro-5H-cyclopenta[d]pyrimidin-4-yl)indolin-6-yl)oxy)acetamide], the inhibition at 1 µM amounted to 14%.

Consider `CN(C)C(=O)COc1ccc2cnn(-c3nc(-c4ccc(Cl)s4)nc4c3C[S+]([O-])C4)c2c1` (centres unmarked) [Compound No. 2-72, 2-((1-(2-(5-Chlorothiophen-2-yl)-6-oxido-5,7-dihydrothieno[3,4-d]pyrimidin-4-yl)-1H-indazol-6-yl)oxy)-N,N-dimethylacetamide], for which the inhibition at 1 µM worked out at 102% and the IC50 was under 100 nM.

Take `CN(C)C(=O)COc1ccc2ccn(-c3nc(-c4ccc(Cl)s4)nc4c3C[S+]([O-])C4)c2c1` (centres unmarked) [Compound No. 2-73, 2-((1-(2-(5-Chlorothiophen-2-yl)-6-oxido-5,7-dihydrothieno[3,4-d]pyrimidin-4-yl)-1H-indol-6-yl)oxy)-N,N-dimethylacetamide]: the inhibition at 1 µM came out at 116% and the IC50 was under 100 nM.

`CN(C)C(=O)COc1ccc2c(c1)N(c1nc(-c3ccc(C#N)c(F)c3)nc3c1C[S+]([O-])C3)CC2` (centres unmarked) [Compound No. 2-77, 2-((1-(2-(4-Cyano-3-fluorophenyl)-6-oxido-5,7-dihydrothieno[3,4-d]pyrimidin-4-yl)indolin-6-yl)oxy)-N,N-dimethylacetamide]: the inhibition at 1 µM turned out to be 92% and the half-maximal inhibitory concentration (IC50) is under 100 nM.

As to `CN(C)C(=O)COc1ccc2c(c1)N(c1nc(-c3ccc(Cl)c(F)c3)nc3c1C[S+]([O-])C3)CC2` (centres unmarked) [Compound No. 2-78, 2-((1-(2-(4-Chloro-3-fluorophenyl)-6-oxido-5,7-dihydrothieno[3,4-d]pyrimidin-4-yl)indolin-6-yl)oxy)-N,N-dimethylacetamide], the inhibition at 1 µM came to 105% and the IC50 was under 100 nM.

On to `CN(C)C(=O)COc1ccc2c(c1)N(c1nc(-c3ccc(O)c(F)c3)nc3c1C[S+]([O-])C3)CC2` (centres unmarked) [Compound No. 2-79, 2-((1-(2-(3-Fluoro-4-hydroxyphenyl)-6-oxido-5,7-dihydrothieno[3,4-d]pyrimidin-4-yl)indolin-6-yl)oxy)-N,N-dimethylacetamide], for which the inhibition at 1 µM came to 92% and the IC50 is under 100 nM.

Turning to `CN(C)C(=O)COc1ccc2c(c1)N(c1nc(-c3ccc(C(N)=O)s3)nc3c1C[S+]([O-])C3)CC2` (centres unmarked) [Compound No. 2-80, 5-(4-(6-(2-(Dimethylamino)-2-oxoethoxy)indolin-1-yl)-6-oxido-5,7-dihydrothieno[3,4-d]pyrimidin-2-yl)thiophene-2-carboxamide], the inhibition at 0.1 µM came to 101% and the IC50 is under 100 nM.

With `CN(C)C(=O)COc1ccc2c(c1)N(c1nc(-c3ccc(C(N)=O)s3)nc3c1CS(=O)(=O)C3)CC2` [Compound No. 2-81, 5-(4-(6-(2-(Dimethylamino)-2-oxoethoxy)indolin-1-yl)-6,6-dioxido-5,7-dihydrothieno[3,4-d]pyrimidin-2-yl)thiophene-2-carboxamide], the inhibition at 0.1 µM was determined as 113% and the concentration for half-maximal inhibition (IC50) is under 100 nM.

For the compound `CN(C)C(=O)COc1ccc2c(c1)N(c1nc(-c3ccc(C#N)s3)nc3c1C[S+]([O-])C3)CC2` (centres unmarked) [Compound No. 2-82, 2-((1-(2-(5-Cyanothiophen-2-yl)-6-oxido-5,7-dihydrothieno[3,4-d]pyrimidin-4-yl)indolin-6-yl)oxy)-N,N-dimethylacetamide], the inhibition at 1 µM was found to be 99% and the half-inhibitory concentration (IC50) was under 100 nM.

As to `CN(C)C(=O)COc1ccc2c(c1)N(c1nc(-c3ccc(C#N)s3)nc3c1CS(=O)(=O)C3)CC2` [Compound No. 2-83, 2-((1-(2-(5-Cyanothiophen-2-yl)-6,6-dioxido-5,7-dihydrothieno[3,4-d]pyrimidin-4-yl)indolin-6-yl)oxy)-N,N-dimethylacetamide], the inhibition at 1 µM worked out at 97% and the IC50 is under 100 nM.

With `CN(C)C(=O)COc1ccc2c(c1)N(c1nc(-c3ccc(C#N)s3)nc3c1CCC3)CC2` [Compound No. 2-84, 2-((1-(2-(5-Cyanothiophen-2-yl)-6,7-dihydro-5H-cyclopenta[d]pyrimidin-4-yl)indolin-6-yl)oxy)-N,N-dimethylacetamide], the inhibition at 1 µM was 91% and the IC50 was under 100 nM.

With `CN(C)C(=O)COc1ccc2c(c1)N(c1nc(-c3ccc(Br)c(F)c3)nc3c1C[S+]([O-])C3)CC2` (centres unmarked) [Compound No. 2-86, 2-((1-(2-(4-Bromo-3-fluorophenyl)-6-oxido-5,7-dihydrothieno[3,4-d]pyrimidin-4-yl)indolin-6-yl)oxy)-N,N-dimethylacetamide], the inhibition at 1 µM is 111% and the IC50 lay in the range of 100 to 1000 nM.

As for `O=C(COc1ccc2c(c1)N(c1nc(-c3ccc(Cl)s3)nc3c1CCC3)CC2)NC1CC1` [Compound No. 2-114, 2-((1-(2-(5-Chlorothiophen-2-yl)-6,7-dihydro-5H-cyclopenta[d]-pyrimidin-4-yl)indolin-6-yl)oxy)-N-cyclopropylacetamide], the inhibition at 1 µM came to 38%.

In the case of `COc1ccc(-c2nc3c(c(N4CCc5ccc(OCC(=O)N(C)C)cc54)n2)CS(=N)(=O)C3)cc1F` (centres unmarked) [Compound No. 2-115, 2-((1-(2-(3-Fluoro-4-methoxyphenyl)-6-imino-6-oxido-5,7-dihydrothieno[3,4-d]pyrimidin-4-yl)indolin-6-yl)oxy)-N,N-dimethylacetamide], the inhibition at 1 µM worked out at 106% and the IC50 is under 100 nM.

As to `O=C(COc1ccc2c(c1)N(c1nc(-c3ccc(Cl)s3)nc3c1C[S+]([O-])C3)CC2)N1CCCC1` (centres unmarked) [Compound No. 2-116, 2-((1-(2-(5-Chlorothiophen-2-yl)-6-oxido-5,7-dihydrothieno[3,4-d]pyrimidin-4-yl)indolin-6-yl)oxy)-1-(pyrrolidin-1-yl)ethanone], the inhibition at 1 µM was found to be 121%.

As to `CN1CCN(C(=O)COc2ccc3c(c2)N(c2nc(-c4ccc(Cl)s4)nc4c2C[S+]([O-])C4)CC3)CC1` (centres unmarked) [Compound No. 2-117, 2-((1-(2-(5-Chlorothiophen-2-yl)-6-oxido-5,7-dihydrothieno[3,4-d]pyrimidin-4-yl)indolin-6-yl)oxy)-1-(4-methylpiperazin-1-yl)ethanone], the inhibition at 1 µM stood at 88%.

As to `O=C(COc1ccc2c(c1)N(c1nc(-c3ccc(Cl)s3)nc3c1C[S+]([O-])C3)CC2)N1CCOCC1` (centres unmarked) [Compound No. 2-118, 2-((1-(2-(5-Chlorothiophen-2-yl)-6-oxido-5,7-dihydrothieno[3,4-d]pyrimidin-4-yl)indolin-6-yl)oxy)-1-morpholinoethanone], the inhibition at 1 µM turned out to be 93%.
